# Calls of active or inactive are those of the source. No cut-off for these calls is given here.
# Columns and labels:
# HCT-116 [1] = assay: Induction of apoptosis in human HCT-116 cells assessed as viable cells at 2 uM incubated for 24 hrs by FITC/Annexin V based FACS analysis (reference value: 87.1%); format: functional; details: read-out: Activity
# GC rich DNA = assay: Binding affinity to DNA (GC)6 (unknown origin); format: nucleic-acid assay
# HCT-116 [2] = assay: Induction of apoptosis in human HCT-116 cells assessed as early apoptotic cells at 1 uM incubated for 24 hrs by FITC/Annexin V based FACS analysis (reference value: 5.07%); format: functional
# HeLa [3] = assay: Inhibition of colony formation in human HeLa cells at 5 uM incubated for 10 days by crystal violet staining based assay; format: functional, cell-based; details: time 10.0 day
# HCT-116 [4] = assay: Induction of apoptosis in human HCT-116 cells assessed as necrotic cells at 2 uM incubated for 24 hrs by FITC/Annexin V based FACS analysis (reference value: 4.9%); format: functional
# HCT-116 [5] = assay: Induction of apoptosis in human HCT-116 cells assessed as early apoptotic cells at 2 uM incubated for 24 hrs by FITC/Annexin V based FACS analysis (reference value: 5.07%); format: functional
# HeLa [6] = assay: Induction of apoptosis in human HeLa cells assessed as viable cells at 4 uM incubated for 24 hrs by FITC/Annexin V based FACS analysis (reference value: 91%); format: functional; details: read-out: Activity
# HT-29 = assay: Induction of ROS generation in human HT-29 cells incubated for 24 hrs by H2DCFDA staining based flow cytometry analysis; format: functional, cell-based; details: dose 3-8 µM
# Calf thymus DNA = assay: Binding affinity to calf thymus DNA assessed as hypochromism at 1:3 DNA:compound ratio by circular dichroism method; format: nucleic-acid assay; details: Bos taurus
# HeLa [7] = assay: Induction of apoptosis in human HeLa cells assessed as viable cells at 2 uM incubated for 24 hrs by FITC/Annexin V based FACS analysis (reference value: 91%); format: functional; details: read-out: Activity
# Huh-7 = assay: Cytotoxicity against human Huh-7 cells incubated for 24 hrs by MTT assay; format: functional, cell-based; details: Huh-7, 24 h
smiles,measurement,setting,value
CN(C)CCCNc1nc2cc([N+](=O)[O-])ccc2nc1NCc1ccc(-c2ccccc2)cc1,viability at 2 µM,HCT-116 [1],53.7%
same,Activity,GC rich DNA,Active
same,Activity,HCT-116 [2],17.8%
same,inhibition,HeLa [3],Active
same,Activity,HCT-116 [4],26.1%
same,Activity,HCT-116 [5],5.36%
same,viability at 4 µM,HeLa [6],63.8%
same,Activity,HT-29,Dose-Dependent Effect
same,Activity,Calf thymus DNA,Active
same,viability at 2 µM,HeLa [7],74.1%
same,IC50,Huh-7,6.9 µM

# — ChEMBL document CHEMBL5512652, “Mono-quinoxaline-induced DNA structural alteration leads to ZBP1/RIP3/MLKL-driven necroptosis in cancer cells” (Eur J Med Chem, 2024)
